According to US20240215905A1, “WOUND DRESSING” (5D HEALTH PROTECTION GROUP LTD, priority 2021, published 2024):

What was measured:
[1] = Optical density measurements indicating AgCl precipitates/aggregates in solution; format: physicochemical; details: no bacteria present
From the text: Optical density measurements can be used to indicate the presence of AgCl precipitates/aggregates in solution. […] No bacteria where present for the measurements.

Pseudomonas = experiment: Bacterial proliferation assay (Colony Forming Units) with added silver; format: cell-based; details: for added Ag^+ concentration at which antibacterial efficacy is apparent: 0.3 ppm is the lowest concentration measured (range 0.3 to 300 ppm)
Protocol: To assess the antibacterial efficacy of the silver, and to correlate this with the sensor response, bacterial proliferation assays were performed on MHB2, PBS, NaNO3 and SWF solutions with added silver at concentrations between 0.3 to 300 ppm.

[Ag+] [Ag^+, silver ions]
added Ag^+ concentration above which AgCl precipitation is seen (optical density) ([1]; PBS): above 1 ppm
added Ag^+ concentration above which AgCl precipitation is seen (optical density) ([1]; SWF): above 30 ppm
added Ag^+ concentration at which antibacterial efficacy is apparent (Pseudomonas; NaNO3 solution): ≤ 0.3 ppm
added Ag^+ concentration at which antibacterial efficacy is apparent (Pseudomonas; PBS solution): ≤ 0.3 ppm
added Ag^+ concentration at which antibacterial efficacy is seen (Pseudomonas; SWF (simulated wound fluid, 33 g/L BSA) solution): ≥ 30 ppm
